Experimental data as given in US20080274192A1, “Pharmaceutical Compositions Comprising an Amorphous Form of a Vegf-R-Inhibitor” (PFIZER INC., priority 2005, published 2008).
Converted amounts (≈) assume the structure as drawn.

Tests used:
Format in all cases: physicochemical
[1] = in vitro dissolution test in MFD solution, dosed as oral powder for constitution; conditions: for AUC90 (area under the concentration-versus-time curve during the initial ninety minutes) / MDC90 (maximum dissolved concentration during the initial ninety minutes): MFD solution pH 6.5, 37° C., 200 μgA/mL dosed; for MDC90 (maximum dissolved concentration during the initial ninety minutes): pre-wetted with PBS/Methocel A/HPMCAS-H (OPC model)
Description: An in vitro dissolution test was performed to determine the dissolution performance of amorphous Compound A relative to crystalline Compound A. For this test, a sufficient amount of material was added to a microcentrifuge test tube so that the concentration of Compound A would have been 200 μgA/mL, if all of the compound had dissolved. The test was run in duplicate. First, 50 μL PBS containing 0.5 wt % Methocel A and 5 mg/mL HPMCAS-H was added to the sample in the tube and mixed using a vortex mixer, to model an oral powder for constitution dosage form. The tubes were placed in a 37° C. temperature-controlled chamber, and 1.8 mL PBS at pH 6.5 and 290 mOsm/kg, containing 7.3 mM sodium taurocholic acid and 1.4 mM of 1-palmitoyl-2-oleyl-sn-glycero-3-phosphocholine, was added to each respective tube. The samples were quickly mixed using a vortex mixer for about 60 seconds. The samples were centrifuged at 13,000 G at 37° C. for 1 minute. The resulting supernatant solution was then sampled and diluted 1:6 (by volume) with methanol and then analyzed by HPLC as described above. The contents of each tube were mixed on the vortex mixer and allowed to stand undisturbed at 37° C. until the next sample was taken. Samples were collected at 4, 10, 20, 40, 90, and 1200 minutes.
A similar test was performed with crystalline Compound A alone (Example 1), and a sufficient amount of material was added so that the concentration of compound would have been 200 μgA/mL, if all of the compound had dissolved.
The concentrations of Compound A obtained in these samples were used to determine the maximum dissolved concentration of Compound A (“MDC90”) and the area under the concentration-versus-time curve (“AUC90”) during the initial ninety minutes.
For these tests, a sufficient amount of material was added so that the concentration of Compound A would have been 200 μgA/mL, if all of the compound had dissolved. The results for the solid amorphous dispersion of Example 2 are included in Table 6, as are the results for tests with pure amorphous Compound A (Example 1) and crystalline Compound A (Example 1).

[2] = in vitro dissolution test in MFD solution, material added directly; conditions: MFD solution pH 6.5, 37° C., 200 μgA/mL dosed, no OPC pre-wetting
Description: An in vitro dissolution test was performed to determine the dissolution performance of the solid amorphous dispersion of Compound A relative to crystalline Compound A. For this test, a sufficient amount of material was added to a microcentrifuge test tube so that the concentration of Compound A would have been 200 μgA/mL, if all of the compound had dissolved. The test was run in duplicate. The tubes were placed in a 37° C. temperature-controlled chamber, and 1.8 mL PBS at pH 6.5 and 290 mOsm/kg, containing 7.3 mM sodium taurocholic acid and 1.4 mM of 1-palmitoyl-2-oleyl-sn-glycero-3-phosphocholine, was added to each respective tube. The samples were quickly mixed using a vortex mixer for about 60 seconds. The samples were centrifuged at 13,000 G at 37° C. for 1 minute. The resulting supernatant solution was then sampled and diluted 1:6 (by volume) with methanol and analyzed by high-performance liquid chromatography (HPLC). HPLC analysis was performed using a Waters C18 column. The mobile phase consisted of 65% 20 mM ammonium phosphate, adjusted to pH 3 with H3PO4, and 35% acetonitrile. UV absorbance was measured at 350 nm. The contents of each tube were mixed on the vortex mixer and allowed to stand undisturbed at 37° C. until the next sample was taken. Samples were collected at 4, 10, 20, 40, 90, and 1200 minutes. […]

[3] = solubility in model fasted duodenal solution; conditions: fassif, pH 6.5, 37° C.
Description: Compound A can exist in several different crystalline forms, as described in U.S. Provisional Application 60/624,665, filed on Nov. 2, 2004, which is incorporated herein by reference. Compound A in the crystalline form referred to as polymorphic Form IV has a pKa of about 4.2, and a solubility that is dependent on the pH of the solution, with the solubility being higher at low pH than at high pH. […] This pH-dependent solubility combined with a low in vivo rate of absorption results in low oral bioavailability, as well as significant subject-to-subject pharmacokinetic variability, for crystalline Compound A. Accordingly, there is a need to improve the bioavailability and reduce pharmacokinetic variability of Compound A relative to its crystalline form.

pKa of Compound A = conditions: crystalline polymorphic Form IV

AUC90 (area under the concentration-versus-time curve during the initial ninety minutes) ([1]; OPC model) [min * μgA/mL]	MDC90 (maximum dissolved concentration during the initial ninety minutes) [1] [μgA/mL]	AUC90 (area under the concentration-versus-time curve during the initial ninety minutes) [2] [min * μgA/mL]	MDC90 (maximum dissolved concentration during the initial ninety minutes) [2] [μgA/mL]	solubility [3] [µg/mL]	pKa (pKa of Compound A)	AUC90 relative to crystalline Compound A ([1]; OPC model, MFD solution) [fold]	MDC90 relative to crystalline Compound A ([1]; OPC model, MFD solution) [fold]	Structure (SMILES)
300	3	200	3	–	–	–	–	CNC(=O)c1ccccc1Sc1ccc2c(/C=C/c3ccccn3)n[nH]c2c1 [Crystalline Compound A, 6-[2-(methylcarbamoyl)phenylsulfanyl]-3-E-[2-(pyridin-2-yl)ethenyl]indazole]
–	–	–	–	~4 (≈ 10.3 µM)	~4.2	–	–	CNC(=O)c1ccccc1Sc1ccc2c(/C=C/c3ccccn3)n[nH]c2c1 [Compound A, 6-[2-(methylcarbamoyl)phenylsulfanyl]-3-E-[2-(pyridin-2-yl)ethenyl]indazole]
1700	48	–	–	–	–	5.7	16	CNC(=O)c1ccccc1Sc1ccc2c(/C=C/c3ccccn3)n[nH]c2c1 [Example 1, 6-[2-(methylcarbamoyl)phenylsulfanyl]-3-E-[2-(pyridin-2-yl)ethenyl]indazole]
